Measured values: patent publication US12552783B2, “Modulators of proteolysis and associated methods of use” (Arvinas Operations, Inc., priority 2018, dated 2026)

Columns and labels:
KRas [1] = biological target: T1, KRas (Homo sapiens, UniProt P01116, G12C); assay: KRas degradation in NCI-H2030 cells by Western blot, normalized to GAPDH (data of Table 14); assay type: cell-based; set-up: host or cells: NCI-H2030; conditions: for Dmax: NCI-H2030
Outline: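 After a day without serum, the G12C-homozygous cells received each compound at 0.3, 1 and 3 μM, with VHL-based degraders left for 24 h and other compounds for 72 h. DC50 is the concentration giving half-maximal degradation and DMax the maximal degradation, both taken from KRas levels normalized to GAPDH.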

KRas [2] = biological target: T1, KRas; assay: KRas degradation in SW1573 cells by Western blot, normalized to GAPDH (data of Table 14); assay type: cell-based
Outline: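 SW1573 cells, homozygous for the KRas G12C mutation and maintained in DMEM with 10% FBS and 1% penicillin-streptomycin, were seeded in 12-well plates, allowed to attach overnight at 37° C. under 5% CO2, then serum-starved for 24 hours before compound exposure. KRas levels were measured by Western blot, normalized to GAPDH, and compared with DMSO controls to give percent degradation, DC50 and Dmax.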

| SMILES | DC50 (KRas [1]; H2030) | Percent Degradation at Indicated Concentration (μM) (KRas [1]; H2030, 0.03 μM) | Percent Degradation at Indicated Concentration (μM) (KRas [1]; H2030, 0.1 μM) | Percent Degradation at Indicated Concentration (μM) (KRas [1]; H2030, 0.3 μM) | Percent Degradation at Indicated Concentration (μM) (KRas [1]; H2030, 1 μM) | Percent Degradation at Indicated Concentration (μM) (KRas [1]; H2030, 3 μM) | Dmax (KRas [1]) | DC50 (KRas [2]; SW1573) | Dmax (KRas [2]; SW1573) | Percent Degradation at Indicated Concentration (μM) (KRas [2]; SW1573, 0.03 μM) | Percent Degradation at Indicated Concentration (μM) (KRas [2]; SW1573, 0.1 μM) | Percent Degradation at Indicated Concentration (μM) (KRas [2]; SW1573, 0.3 μM) | Percent Degradation at Indicated Concentration (μM) (KRas [2]; SW1573, 1 μM) | Percent Degradation at Indicated Concentration (μM) (KRas [2]; SW1573, 3 μM) | Percent Degradation at Indicated Concentration (μM) (KRas [1]; H2030 cells, 0.3 μM) | Percent Degradation at Indicated Concentration (μM) (KRas [1]; H2030 cells, 1 μM) | Percent Degradation at Indicated Concentration (μM) (KRas [1]; H2030 cells, 3 μM) | Dmax (KRas [1]; H2030 cells) | DC50 (KRas [2]; SW1573 cells) | Dmax (KRas [2]; SW1573 cells) | other results |
| --- | --- | --- | --- | --- | --- | --- | --- | --- | --- | --- | --- | --- | --- | --- | --- | --- | --- | --- | --- | --- | --- |
| C=CC(=O)N1CCN(c2nc(NCCC(=O)N(C)CCOCCOCCOCCOCC(=O)N[C@H](C(=O)N3C[C@H](O)C[C@H]3C(=O)N[C@@H](C)c3ccc(-c4scnc4C)cc3)C(C)(C)C)nc3c(F)c(-c4cc(O)cc5ccccc45)c(Cl)cc23)CC1 (racemic) [compound 196, (2RS,4SR)-1-((RS)-21-((4-(4-acryloylpiperazin-1-yl)-6-chloro-8-fluoro-7-((SR)-3-hydroxynaphthalen-1-yl)quinazolin-2-yl)amino)-2-(tert-butyl)-18-methyl-4,19-dioxo-6,9,12,15-tetraoxa-3,18-diazahenicosanoyl)-4-hydroxy-N-((RS)-1-(4-(4-methylthiazol-5-yl)phenyl)ethyl)pyrrolidine-2-carboxamide] | ≥ 1000 nM | C (Percent Degradation: C ≤ 35) | C (Percent Degradation: C ≤ 35) | C (Percent Degradation: C ≤ 35) | C (Percent Degradation: C ≤ 35) | C (Percent Degradation: C ≤ 35) | ≤ 35% | ≥ 1000 nM | ≤ 35% | C (Percent Degradation: C ≤ 35) | C (Percent Degradation: C ≤ 35) | C (Percent Degradation: C ≤ 35) | C (Percent Degradation: C ≤ 35) | C (Percent Degradation: C ≤ 35) |  |  |  |  |  |  |  |
| C=CC(=O)N1CCN(c2nc(OCCN(C)CCOCCOCCOCCOCC(=O)N[C@H](C(=O)N3C[C@H](O)C[C@H]3C(=O)N[C@@H](C)c3ccc(-c4scnc4C)cc3)C(C)(C)C)nc3c(F)c(-c4cc(O)cc5ccccc45)c(Cl)cc23)CC1 [compound 473, (2S,4R)-1-((2S)-20-((4-(4-acryloylpiperazin-1-yl)-6-chloro-8-fluoro-7-(3-hydroxynaphthalen-1-yl)quinazolin-2-yl)oxy)-2-(tert-butyl)-18-methyl-4-oxo-6,9,12,15-tetraoxa-3,18-diazaicosanoyl)-4-hydroxy-N-((S)-1-(4-(4-methylthiazol-5-yl)phenyl)ethyl)pyrrolidine-2-carboxamide] | 100 to 1000 nM | C (Percent Degradation: C ≤ 35) | C (Percent Degradation: C ≤ 35) | C (Percent Degradation: C ≤ 35) | C (Percent Degradation: C ≤ 35) | C (Percent Degradation: C ≤ 35) | ≤ 35% | 100 to 1000 nM | 35 to 70% | C (Percent Degradation: C ≤ 35) | C (Percent Degradation: C ≤ 35) | B (35 < B < 70) | B (35 < B < 70) | B (35 < B < 70) |  |  |  |  |  |  | Percent Degradation at Indicated Concentration (μM) (KRas [1]; H2030, 10 μM): C (Percent Degradation: C ≤ 35); Percent Degradation at Indicated Concentration (μM) (KRas [2]; SW1573, 10 μM): B (35 < B < 70) |
| C=CC(=O)N1CCN(c2nc(O[C@H](C)CN3CCC(OCCOCC(=O)N[C@H](C(=O)N4C[C@H](O)C[C@H]4C(=O)N[C@@H](C)c4ccc(-c5scnc5C)cc4)C(C)(C)C)CC3)nc3c(F)c(-c4cc(O)cc5ccccc45)c(Cl)cc23)CC1 [compound 398, (2S,4R)-1-((2S)-2-(2-(2-((1-((2R)-2-((4-(4-acryloylpiperazin-1-yl)-6-chloro-8-fluoro-7-(3-hydroxynaphthalen-1-yl)quinazolin-2-yl)oxy)propyl)piperidin-4-yl)oxy)ethoxy)acetamido)-3,3-dimethylbutanoyl)-4-hydroxy-N-((S)-1-(4-(4-methylthiazol-5-yl)phenyl)ethyl)pyrrolidine-2-carboxamide] |  |  |  |  |  |  |  |  |  |  |  |  |  |  | C (Percent Degradation: C ≤ 35) | C (Percent Degradation: C ≤ 35) | C (Percent Degradation: C ≤ 35) | ≤ 35% | < 100 nM | 35 to 70% | Percent Degradation at Indicated Concentration (μM) (KRas [2]; SW1573 cells, 0.01 μM): C (Percent Degradation: C ≤ 35); Percent Degradation at Indicated Concentration (μM) (KRas [2]; SW1573 cells, 0.03 μM): B (35 < B < 70); Percent Degradation at Indicated Concentration (μM) (KRas [2]; SW1573 cells, 0.1 μM): B (35 < B < 70); Percent Degradation at Indicated Concentration (μM) (KRas [2]; SW1573 cells, 0.3 μM): B (35 < B < 70); Percent Degradation at Indicated Concentration (μM) (KRas [2]; SW1573 cells, 1 μM): C (Percent Degradation: C ≤ 35) |
| C=CC(=O)N1CCN(c2nc(O[C@H](C)CN3CCC(OCCOCCOCCOCCOCC(=O)N[C@H](C(=O)N4C[C@H](O)C[C@H]4C(=O)N[C@@H](C)c4ccc(-c5scnc5C)cc4)C(C)(C)C)CC3)nc3c(F)c(-c4cc(O)cc5ccccc45)c(Cl)cc23)CC1 [compound 401, (2S,4R)-1-((2S)-17-((1-((2R)-2-((4-(4-acryloylpiperazin-1-yl)-6-chloro-8-fluoro-7-(3-hydroxynaphthalen-1-yl)quinazolin-2-yl)oxy)propyl)piperidin-4-yl)oxy)-2-(tert-butyl)-4-oxo-6,9,12,15-tetraoxa-3-azaheptadecanoyl)-4-hydroxy-N-((S)-1-(4-(4-methylthiazol-5-yl)phenyl)ethyl)pyrrolidine-2-carboxamide] |  |  |  |  |  |  |  |  |  |  |  |  |  |  | C (Percent Degradation: C ≤ 35) | C (Percent Degradation: C ≤ 35) | C (Percent Degradation: C ≤ 35) | ≤ 35% | ≥ 1000 nM | ≤ 35% | Percent Degradation at Indicated Concentration (μM) (KRas [2]; SW1573 cells, 0.01 μM): C (Percent Degradation: C ≤ 35); Percent Degradation at Indicated Concentration (μM) (KRas [2]; SW1573 cells, 0.03 μM): C (Percent Degradation: C ≤ 35); Percent Degradation at Indicated Concentration (μM) (KRas [2]; SW1573 cells, 0.1 μM): C (Percent Degradation: C ≤ 35); Percent Degradation at Indicated Concentration (μM) (KRas [2]; SW1573 cells, 0.3 μM): C (Percent Degradation: C ≤ 35); Percent Degradation at Indicated Concentration (μM) (KRas [2]; SW1573 cells, 1 μM): C (Percent Degradation: C ≤ 35) |
